Values of other authors in patent US10688072B2, “Misoprostol dispersible tablet” (Azanta Danmark A/S, priority 2014, dated 2020).
Read-outs that look alike come from different tables or passages of the source.

Conditions: 400 μg

CCCCC(C)(O)C/C=C/[C@H]1[C@H](O)CC(=O)[C@@H]1CCCCCCC(=O)OC (mixture of isomers) [misoprostol]
Peak in plasma concentration (oral administration compared with vaginal): larger peak than vaginal administration
Inter-subject variability in % at peak concentration (oral route compared with vaginal): smaller than for vaginal application
Peak in plasma concentration (sublingual administration compared with oral and vaginal): larger peak in plasma concentration of misoprostol than oral and vaginal
Inter-subject variability in % at peak concentration (sublingual route compared with oral and vaginal): smaller following the sublingual route of administration than for oral and vaginal application
